Test systems include DU-145 prostate; 786-0 renal; SF-295 CNS; T-47D breast; OVCAR-4 ovarian; MCF7 breast; SK-MEL-2 melanoma; RXF 393 renal; CAKI-1 renal; SR leukemia.
Common to all, as to assay: inhibition of tumour cell growth, NCI panel, 48 h

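Step 1: Grow cells in 96-well plates. Step 2: Expose to compound for 48 hours at 5 concentrations. Step 3: Interpolate endpoints linearly; if unreached, use highest concentration. Here, GI50 denotes the concentration required for 50% inhibition of growth. TGI is the concentration that stops growth completely.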

`COC(=O)N/N=C(/c1nc2ccc([N+](=O)[O-])cc2[nH]c1=O)C(O)c1ccc(OC)c(OC)c1` (stereo not drawn): the TGI with DU-145 prostate, in the experiment with 786-0 renal, in the experiment with SF-295 CNS, with T-47D breast, in the experiment on OVCAR-4 ovarian and with MCF7 breast was greater than 100 µM in each case. Besides, the TGI in the experiment with SK-MEL-2 melanoma is greater than 100 µM; with RXF 393 renal it was greater than 100 µM; in the experiment on CAKI-1 renal, greater than 100 µM; in the experiment on SR leukemia it was 39 µM.

Turning to `Cc1cc2c(cc1Cl)N1C(=O)NS(=O)(=O)N=C1NS2(=O)=O`, the GI50 with DU-145 prostate, in the experiment on 786-0 renal, with SF-295 CNS, in the experiment on T-47D breast, with OVCAR-4 ovarian and in the experiment with MCF7 breast was greater than 100 µM throughout. The GI50 in the experiment on SK-MEL-2 melanoma, with CAKI-1 renal and in the experiment with SR leukemia was greater than 100 µM in each case. The TGI in the experiment on DU-145 prostate, with 786-0 renal, in the experiment with SF-295 CNS, in the experiment on T-47D breast, in the experiment on OVCAR-4 ovarian and with MCF7 breast was greater than 100 µM throughout. In addition, the TGI in the experiment on SK-MEL-2 melanoma, with CAKI-1 renal and with SR leukemia was greater than 100 µM in each case.

For `COc1cc(NC(C)CCCN2C(=O)c3ccccc3C2=O)c2ncccc2c1OC` (stereo not drawn), the GI50 with DU-145 prostate was 41.9 µM; in the experiment on 786-0 renal, 54.1 µM; in the experiment with SF-295 CNS, 21.1 µM; with T-47D breast, 35.7 µM; with OVCAR-4 ovarian, 11.8 µM; in the experiment with MCF7 breast it was 10.9 µM. The GI50 was 29 µM in the experiment on SK-MEL-2 melanoma, 29.5 µM with CAKI-1 renal and 23.7 µM in the experiment on SR leukemia. The TGI is greater than 100 µM in the experiment with DU-145 prostate; greater than 100 µM in the experiment on 786-0 renal; 86.5 µM in the experiment on SF-295 CNS; greater than 100 µM in the experiment with T-47D breast; greater than 100 µM in the experiment with OVCAR-4 ovarian; greater than 100 µM in the experiment on MCF7 breast. Besides, the TGI with SK-MEL-2 melanoma was greater than 100 µM; in the experiment on CAKI-1 renal it was 74.4 µM; in the experiment with SR leukemia it was greater than 100 µM.

Regarding `Fc1ccc(-c2c(-c3ccncc3)[nH]c3nccnc23)cc1`, the GI50 is 7.32 µM in the experiment on DU-145 prostate; 11.3 µM with 786-0 renal; greater than 15.1 µM with SF-295 CNS; 7.09 µM in the experiment on T-47D breast; greater than 16.7 µM in the experiment with OVCAR-4 ovarian; 7.39 µM in the experiment with MCF7 breast. Also, the GI50 in the experiment with SK-MEL-2 melanoma was 13.6 µM; with RXF 393 renal, 3.69 µM; in the experiment on CAKI-1 renal, 4.52 µM; in the experiment with SR leukemia it was 8.79 µM. For the same molecule, the TGI in the experiment on DU-145 prostate was greater than 22 µM; in the experiment with 786-0 renal, greater than 25 µM; in the experiment with SF-295 CNS it was greater than 25 µM; with T-47D breast it was greater than 25 µM; in the experiment with OVCAR-4 ovarian it was greater than 25 µM; in the experiment on MCF7 breast, greater than 25 µM. In addition, the TGI with SK-MEL-2 melanoma was greater than 25 µM; in the experiment on RXF 393 renal it was 9.8 µM; in the experiment on CAKI-1 renal, greater than 19.9 µM; in the experiment on SR leukemia, greater than 25 µM.

Consider `N=C1C(c2nc3ccccc3s2)=C(O)CN1c1cc(Cl)cc(Cl)c1`, for which the GI50 in the experiment on DU-145 prostate is greater than 100 µM; in the experiment on 786-0 renal it was 88.7 µM; with SF-295 CNS, 89.2 µM; with T-47D breast it was greater than 100 µM; with OVCAR-4 ovarian, 37.4 µM; in the experiment on MCF7 breast, greater than 100 µM. Besides, the GI50 in the experiment on SK-MEL-2 melanoma, in the experiment with CAKI-1 renal and with SR leukemia was greater than 100 µM each time. Also, the TGI with DU-145 prostate, with 786-0 renal, with SF-295 CNS, with T-47D breast, in the experiment with OVCAR-4 ovarian and in the experiment on MCF7 breast was greater than 100 µM in each case. In addition, the TGI with SK-MEL-2 melanoma, with CAKI-1 renal and with SR leukemia was greater than 100 µM throughout.

As to `COc1ccc(/C=C2/CN(CCC#N)C/C(=C\c3ccc(OC)cc3)C2=O)cc1`, the GI50 is 4.25 µM in the experiment on DU-145 prostate; 1.99 µM in the experiment on 786-0 renal; 3.76 µM in the experiment with T-47D breast; 4.42 µM in the experiment with OVCAR-4 ovarian; 1.72 µM in the experiment with MCF7 breast; 2.72 µM with SK-MEL-2 melanoma. The results for the GI50 in the experiment with RXF 393 renal, with CAKI-1 renal and in the experiment on SR leukemia were 1.7 µM, 2.82 µM and 1.07 µM, respectively. The TGI in the experiment with DU-145 prostate was greater than 100 µM; in the experiment on 786-0 renal it was 4.33 µM; in the experiment on T-47D breast, greater than 100 µM; in the experiment with OVCAR-4 ovarian, greater than 100 µM; with MCF7 breast, greater than 100 µM; with SK-MEL-2 melanoma, 7.15 µM. Also, the TGI in the experiment with RXF 393 renal is 3.29 µM; with CAKI-1 renal it was greater than 100 µM; with SR leukemia it was greater than 100 µM.

In the case of `CCCc1n(Cc2ccc3ccccc3n2)cc[n+]1Cc1ccc2ccccc2n1`, the GI50 in the experiment on DU-145 prostate was 4.22 µM; in the experiment on 786-0 renal, 11.2 µM; in the experiment with SF-295 CNS it was 3.57 µM; in the experiment with T-47D breast, 0.416 µM; in the experiment with OVCAR-4 ovarian, 0.445 µM; with MCF7 breast, 1.25 µM. Also, the GI50 was 1.52 µM in the experiment with SK-MEL-2 melanoma, 9.08 µM with RXF 393 renal and 0.635 µM with SR leukemia. Besides, the TGI with DU-145 prostate is 31.2 µM; in the experiment on 786-0 renal, 24.2 µM; with SF-295 CNS, 15.7 µM; in the experiment on T-47D breast, 5.03 µM; in the experiment with OVCAR-4 ovarian it was 18.3 µM; in the experiment on MCF7 breast it was 11.9 µM. Further, the TGI was 5.68 µM with SK-MEL-2 melanoma, 35.4 µM in the experiment with RXF 393 renal and 12.7 µM in the experiment with SR leukemia.

For `COc1cc(-c2nn(-c3cccc(NC(=O)CCN4CCN(C)CC4)c3)cc2-c2ccncc2)ccc1Cl`, the GI50 with DU-145 prostate was 0.997 µM; with 786-0 renal, 1.54 µM; in the experiment on SF-295 CNS, 0.968 µM; in the experiment with T-47D breast, 2.34 µM; in the experiment on OVCAR-4 ovarian, 1.73 µM; in the experiment on MCF7 breast, 0.35 µM. Moreover, the GI50 in the experiment with SK-MEL-2 melanoma is 0.889 µM; in the experiment on RXF 393 renal, 1.09 µM; with SR leukemia, 0.471 µM. Also, the TGI with DU-145 prostate amounted to 6.24 µM; in the experiment on 786-0 renal it was 3.43 µM; in the experiment with SF-295 CNS, 2.75 µM; in the experiment with T-47D breast, 10.1 µM; in the experiment on OVCAR-4 ovarian it was 11.4 µM; in the experiment with MCF7 breast it was 1.92 µM. The figures for the TGI in the experiment with SK-MEL-2 melanoma, in the experiment with RXF 393 renal and with SR leukemia were 2.55 µM, 2.77 µM and 2.64 µM, respectively.
